Measured values reported in US8575188B2 (priority 2009, dated 2013).
Read-outs that look alike come from different tables or passages of the source.

Key:
[1] = tested on: human prostate cancer cell line DU145; experiment: Antiproliferation assay, 72 hrs under air, Alamar Blue; type: cell-based
[2] = tested on: human melanoma cell line MAMLE-3M; experiment: as above; type: cell-based
[3] = tested on: human melanoma cell line SKMEL-28; experiment: as above; type: cell-based
[4] = tested on: human non small cell lung cancer cell line H460; experiment: Antiproliferation (cytotoxicity) assay, 72 hrs under air, Alamar Blue; type: cell-based; details: read-out: IC50
[5] = tested on: IGROV1 human ovarian cancer cells; experiment: Xenograft model of metastatic ovarian cancer (i.p.), survival
Description: One arm was dosed with only vehicle and the results used for the efficacy calculations. […] A xenograft model of metastatic ovarian cancer was set up by the intraperitoneal (i.p) injection of 3×10^6 IGROV1 human ovarian cancer cells in nude mice. Mice were evaluated twice a week for morbidity and mortality. Kaplan-Meier survival curves were plotted.

[6] = stated as known for topotecan; cited from earlier work
[7] = tested on: human colon cancer cell line HT-29; experiment: Antiproliferation assay, 72 hrs under air, Alamar Blue; type: cell-based
[8] = tested on: bone marrow progenitor cells; experiment: Bone marrow progenitor cell clonogenic assay (CFU-GM), mouse; details: read-out: Mouse CFU-GM (IC50 nM) THLD
Description: (§1) A clonogenic assay was performed using bone marrow progenitor cells derived from the blood of mice and humans.

[9] = tested on: bone marrow progenitor cells; experiment: Bone marrow progenitor cell clonogenic assay (CFU-GM), human; details: read-out: Human CFU-GM (IC50 nM) THLD
Description: as §1

human colon cancer HT-29 = experiment: Xenograft model, subcutaneous, tumor growth inhibition and body weight loss; details: for Max. BWL (%): mouse, in vivo, po, 30 mg/kg
Description: (§2) The first three models were produced by subcutaneous implantation of the appropriate number of cells into the flank of the animals. When tumor size was approximately 150 mm^3, animals were randomized into groups of 10 mice each for dosing. One arm was dosed with only vehicle and the results used for the efficacy calculations. […] TGI=(1−T/C) %. T/C ratio was calculated as T/C=(Tn−Ti)/(Cn−Ci), where Tn is tumor volume in treatment group on Day n, and Ti is the initial tumor volume in the treatment group. Cn is the tumor volume of the vehicle group on the last day of measurement. Ci is the initial tumor volume in the vehicle control group. Day n is the last measurement taken when all the animals in the vehicle group were not yet euthanized. Animals were euthanized when tumor volumes grew larger than 2000 mm^3.

[10] = tested on: human non small cell lung cancer H-460; experiment: as above; details: for Max. BWL (%): mouse, in vivo, po
Description: as §2

[11] = tested on: human prostate cancer PC-3; experiment: as above; details: PC3, PO, QD × 5/wk, 2 weeks, 2 mg/Kg
Description: as §2

[12] = tested on: human melanoma cell line A375; experiment: Antiproliferation assay, 72 hrs under air, Alamar Blue; type: cell-based
[13] = tested on: human ovarian cancer cell line IGROV-1; experiment: as above; type: cell-based
[14] = tested on: human melanoma cell line SKMEL2; experiment: as above; type: cell-based
[15] = tested on: BCRP, which over expressed the breast cancer resistance protein; experiment: Efflux pump drug resistance, antiproliferation assay, BCRP over expressing line; details: for IC50: 72 h, read-out: Air 3d BCRP prol. IC50 nM, air, 3 days; for 3d BCRP/pcDNA: ratio of IC50s, BCRP over expressing versus parent line, 3 days
Description: (§3) The compounds were screened for cytotoxicity using human non small cell lung cancer cell line H460. […]
(§4) Cellular drug resistance was determined using the antiproliferation assay described above.

[16] = tested on: human prostate cancer cell line LNCap; experiment: Antiproliferation assay, 72 hrs under air, Alamar Blue; type: cell-based
[17] = tested on: human prostate cancer cell line PC-3; experiment: as above; type: cell-based; details: read-out: PC3 IC50
pcDNA = experiment: Efflux pump drug resistance, antiproliferation assay, parent line; type: cell-based; details: 72 h, air, 3 days; read-out: Air 3d pcDNA prol. IC50
Description: as §3, §4

[18] = tested on: H69 small cell lung cancer line; experiment: as above; type: cell-based; details: 72 h, air, 3 days; read-out: Air 3d H69 prol. IC50
Description: as §3, §4

[19] = tested on: DX5, which over expresses the MDR 1 efflux pump; experiment: Efflux pump drug resistance, antiproliferation assay, MDR 1 over expressing line; type: cell-based; details: MDR1, 72 h, air, 3 days; read-out: Air 3d DX5 prol. IC50
Description: as §3, §4

[20] = tested on: Messa ovarian carcinoma cell line; experiment: Efflux pump drug resistance, antiproliferation assay, parent line; type: cell-based; details: Homo sapiens, MES-SA, 72 h, air, 3 days; read-out: Air 3d MESSA prol. IC50
Description: […] Cells were treated with test compounds at various concentrations under air for 72 hrs, and then cell viability and proliferation were assessed by Alamar Blue staining.
as §4

[21] = Bone marrow progenitor cell clonogenic assay (CFU-GM), mouse; details: mouse
Description: as §1

[22] = Bone marrow progenitor cell clonogenic assay (CFU-GM), human; details: human
Description: as §1

[23] = In vivo pharmacokinetics, oral gavage; details: CD, mouse, in vivo, po; for AUC / Cmax: 50 mg/kg
Description: The data normalized to a 50 mg/kg dose are shown below (compounds were dosed at either 25 or 50 mg/kg).

[24] = tested on: MRP1 over expressing H69AR line; experiment: Efflux pump drug resistance, antiproliferation assay, MRP1 over expressing line; type: cell-based; details: Homo sapiens, 72 h, air, 3 days, read-out: Air 3d H69ar (MRP1) prol. IC50
Description: as §3, §4

[25] = tested on: mouse melanoma cell line B-16-F10; experiment: Antiproliferation assay, 72 hrs under air, Alamar Blue; type: cell-based; details: B16-F10
[26] = Brain penetration, AUC in brain versus AUC plasma; details: mouse
Description: Certain compounds of the invention were assessed for brain penetration by comparing the AUC for plasma exposure versus the AUC in brain.

[27] = HT29, PO, QD × 5/wk, 4 weeks, 2 mg/Kg
[28] = H460, PO, QD × 5/wk, 2 weeks, 2 mg/Kg
[29] = Homo sapiens, NCI-H460, H460, inhibition of proliferation, 72 hrs under air
[30] = IGROV1 i.p., median survival treated / vehicle times 100, PO, QD × 5/wk, 4 weeks, 20 mg/Kg
[31] = Homo sapiens, HT-29, read-out: HT29 IC50
[32] = HT29, PO, QD × 5/wk, 2 weeks, 30 mg/Kg
[33] = Homo sapiens, SK-MEL-2, read-out: SKMEL-2 IC50

## CC[C@@]1(O)C(=O)OCc2c1cc1n(c2=O)Cc2cc3c(CN(C)C)c(O)ccc3nc2-1 [Topotecan, reference compound]
[1]
  IC50: 0.03 µM
[2]
  IC50: 1 µM
[3]
  IC50: > 10 µM
[4]
  IC50: 0.045 µM
[5]; mouse, in vivo, 2 mg/kg
  T/C: 186
[6]
  brain levels in mice relative to plasma levels: about 30%
[7]; read-out: HT29 IC50
  IC50: > 1 µM
[8]
  IC50: 130 nM
[9]
  IC50: 8 nM
Human colon cancer HT-29; [27]
  Max BWL (%): 0%
  TGI (%): 70.3%
[10]; [28]
  Max BWL (%): 8.9%
  TGI (%): 46.1%
[11]
  Max BWL (%): 1.3%
  TGI (%): 79%
[12]
  IC50: 0.013 µM
[13]
  IC50: 0.16 µM
[14]; read-out: SKMEL-2 IC50
  IC50: 0.14 µM
[15]; not told
  ratio BCRP over expressing line versus the parent cell line: 51
[16]
  IC50: 0.009 µM
[17]
  IC50: 0.045 µM

## CC[C@@]1(O)C(=O)OCc2c1c(N)c1n(c2=O)Cc2c-1nc1ccccc1c2C [TH1339]
[1]; Homo sapiens, DU-145
  IC50: 0.0025 µM
[2]; Homo sapiens
  IC50: 0.22 µM
[3]; Homo sapiens, SK-MEL-28
  IC50: > 10 µM
[4]; [29]
  IC50: 0.0018 µM
[5]; [30]
  T/C: 280
pcDNA
  IC50: 0.0023 µM
[18]
  IC50: 0.013 µM
[19]
  IC50: 0.0067 µM
[7]; [31]
  IC50: 0.069 µM
[20]
  IC50: 0.0085 µM
[8]; Mus musculus, CFU-GM
  IC50: 560 nM
[21]
  IC90: 2.2 µM
[9]; Homo sapiens, CFU-GM
  IC50: 10 nM
[22]
  IC90: 0.1 µM
Human colon cancer HT-29; [32]
  TGI (%): 56.5%
Human colon cancer HT-29
  Max. BWL (%): 3%
[10]; H460, PO, QD × 5/wk, 2 weeks, 15 mg/Kg
  TGI (%): 46.1%
[10]; 15 mg/kg
  Max. BWL (%): 0%
[12]; Homo sapiens, A-375
  IC50: 0.003 µM
[23]
  AUC: 0.405 µg·h/mL
  Cmax: 0.378 µg/mL
[13]; Homo sapiens, IGROV-1
  IC50: 0.01 µM
[14]; [33]
  IC50: 0.05 µM
[24]
  IC50: 0.028 µM
[15]
  IC50: 2.1 nM
  3d BCRP/pcDNA: 0.913
[25]
  IC50: 0.69 µM
[16]; Homo sapiens, LNCaP
  IC50: 0.023 µM
[17]; Homo sapiens
  IC50: 0.009 µM

## CC[C@@]1(O)C(=O)OCc2c1c(N)c1n(c2=O)Cc2cc3ccccc3nc2-1 [TH1320]
[1]; Homo sapiens, DU-145
  IC50: 0.05 µM
[2]; Homo sapiens
  IC50: 0.776 µM
[3]; Homo sapiens, SK-MEL-28
  IC50: 3 µM
[4]; [29]
  IC50: 0.018 µM
[5]; [30]
  T/C: 204
pcDNA
  IC50: 0.0074 µM
[18]
  IC50: 0.091 µM
[19]
  IC50: 0.06 µM
[7]; [31]
  IC50: 0.229 µM
[20]
  IC50: 0.058 µM
[8]; Mus musculus, CFU-GM
  IC50: 710 nM
[21]
  IC90: 4.8 µM
[9]; Homo sapiens, CFU-GM
  IC50: 130 nM
[22]
  IC90: 1.1 µM
Human colon cancer HT-29; [32]
  TGI (%): 44.3%
Human colon cancer HT-29
  Max. BWL (%): 3%
[10]; H460, PO, QD × 5/wk, 2 weeks, 30 mg/Kg
  TGI (%): 79.2%
[10]; 30 mg/kg
  Max. BWL (%): 3.8%
[12]; Homo sapiens, A-375
  IC50: 0.022 µM
[23]
  half-life: 1.98 h
  AUC: 1.62 µg·h/mL
  Cmax: 0.547 µg/mL
[13]; Homo sapiens, IGROV-1
  IC50: 0.12 µM
[14]; [33]
  IC50: 0.17 µM
[24]
  IC50: 0.091 µM
[15]
  IC50: 14 nM
  3d BCRP/pcDNA: 1.8919
[25]
  IC50: 0.95 µM
[26]
  Kp: 1.15
[16]; Homo sapiens, LNCaP
  IC50: 0.11 µM
[17]; Homo sapiens
  IC50: 0.043 µM
